In patent US9702869B2, “Assays, antibodies, immunogens and compositions related to 5-FU” (WELLSTAT DIAGNOSTICS, LLC, priority 2011, dated 2017):

Key:
monoclonal antibody 61C6 = test: Cross-reactivity evaluation with lyophilized reagents (Bi-mAb-Beads capture, TAG Plus 1-5C-5-FU-BSA detector); format: binding, Balb/c mouse
Description: This experiment was performed to test the specificity of the monoclonal antibody 61C6 against 5-FU analogues, pro-drugs and interference reagents. […] In this Example, the components of 5-FU assay (capture, detector) were lyophilized and the sample (calibrator, controls, and spiked plasma samples) were added directly to the lyophilized reagent pellets.
The assay was prepared using the following protocol. […] The capture and the detector solutions were aliquoted (20 μL) and lyophilized.
The assay procedure was as follows. The electrostatic on the surface of the microplate was reduced by using a Zerostat Antistatic Device prior to use. The device was pointed on the surface of the microplate, squeezed and the trigger released a few times across the microplate. 1 lyophilized pellet of each capture and detector reagent was transferred into plate wells using the Vacuum Pick-Up System. A hollow needle tip was attached onto the pick-up pen, and the finger controlled vacuum was used for picking up (the index finger was placed over the hole so that vacuum was drawn through the needle) or releasing pellet (lifting the index finger off of the hole). On a metal plate holder of a Digital Heat Block set at 37±2° C., 50 μL of each calibrator, control, and sample (in this case cross-reactivity panels) were added in duplicate directly into plate wells containing 2 lyophilized pellets. The plate was placed on the Micromix shaker set at Form 8 & Amp 6 for 30 seconds to mix. The plate was then placed in the metal plate holder of a Digital Heat Block set at 37±2° C. The plate was covered with a plate cover and incubated for 5±0.5 minutes.

mAb 61C6 = test: Competitive ECL cross-reactivity test in human plasma with and without 5-FU; settings: for Cross-Reactivity (%): human plasma, chemicals 10 μg/mL, chemotherapy drugs 100 μg/mL; for cross-reactivity: with and without 5-FU, Table 5
[1] = test system: anti-5-FU 61C6 monoclonal antibody; test: Assay timing evaluation of competitive 5-FU ECL immunoassay; format: binding, Balb/c mouse; settings: 25 ng/mL of 5-FU in charcoal stripped plasma
antibody 61C6 = test: 5-FU ECL assay with antibody 61C6, summary of cross-reactivity; format: binding, Balb/c mouse; settings: 5-FU assay with antibody 61C6
Description: The capture reagent 1-5C-5-FU-M270 beads appeared to be stable at 2-8° C. for at least 40 hours. […] The functional sensitivity was determined to be approximately 10 ng/mL (which is an estimate of functional sensitivity based on the calibrator curve).

[2] = Without 5-FU, lyophilized reagents, human plasma

Nc1nc(=O)c2c([nH]1)NCC(CNc1ccc(C(=O)N[C@@H](CCC(=O)O)C(=O)O)cc1)N2C=O (mixture of isomers) [Folinic Acid]
% Cross-React (monoclonal antibody 61C6; With 75 ng/mL Spiked 5-FU): 0.1% | % Cross-React (monoclonal antibody 61C6; With 1000 ng/mL Spiked 5-FU): 0.0% | % Cross-React (monoclonal antibody 61C6; [2]): 0.0% | Cross-Reactivity (%) (mAb 61C6; With 5-FU (379 ng/mL)): −0.01% | Cross-Reactivity (%) (mAb 61C6; Without 5-FU): 0.000% | cross-reactivity (mAb 61C6): essentially undetectable

O=c1[nH]cc(F)c(=O)[nH]1 [5-FU, 5-Fluorouracil]
ECL signal compared to CAL1 ([1]; 5 minutes incubation at 37° C.): 61% | ECL signal compared to CAL1 ([1]; other incubation timing (10, 15 minutes)): 78%

CCCCCOC(=O)Nc1nc(=O)n([C@@H]2O[C@H](C)[C@@H](O)[C@H]2O)cc1F [Capecitabine]
% Cross-React (monoclonal antibody 61C6; With 75 ng/mL Spiked 5-FU): 0.7% | % Cross-React (monoclonal antibody 61C6; With 1000 ng/mL Spiked 5-FU): 0.6% | % Cross-React (monoclonal antibody 61C6; [2]): 0.0% | Cross-Reactivity (%) (mAb 61C6; With 5-FU (379 ng/mL)): −0.13% | Cross-Reactivity (%) (mAb 61C6; Without 5-FU): 0.00%

N.N.[Cl][Pt][Cl] [Cisplatin]
% Cross-React (monoclonal antibody 61C6; With 1000 ng/mL Spiked 5-FU): 0.1% | Cross-Reactivity (%) (mAb 61C6; With 5-FU (379 ng/mL)): −0.04% | Cross-Reactivity (%) (mAb 61C6; Without 5-FU): 0.001% | cross-reactivity (mAb 61C6): essentially undetectable

O=C1NCC(F)C(=O)N1 (centres unmarked) [DH5FU, 5-Fluorodihydropyrimidine-2,4-dione]
% Cross-React (monoclonal antibody 61C6; With 1000 ng/mL Spiked 5-FU): 1.0% | Cross-Reactivity (%) (mAb 61C6; With 5-FU (379 ng/mL)): 1.74% | Cross-Reactivity (%) (mAb 61C6; Without 5-FU): 2.62%

CCc1c2c(nc3ccc(OC(=O)N4CCC(N5CCCCC5)CC4)cc13)-c1cc3c(c(=O)n1C2)COC(=O)[C@]3(O)CC [Irinotecan]
% Cross-React (monoclonal antibody 61C6; With 75 ng/mL Spiked 5-FU): 0.1% | % Cross-React (monoclonal antibody 61C6; With 1000 ng/mL Spiked 5-FU): 0.3% | cross-reactivity (mAb 61C6): essentially undetectable

CN(Cc1cnc2nc(N)nc(N)c2n1)c1ccc(C(=O)N[C@@H](CCC(=O)O)C(=O)O)cc1 [Methotrexate]
% Cross-React (monoclonal antibody 61C6; With 75 ng/mL Spiked 5-FU): 0.0% | % Cross-React (monoclonal antibody 61C6; With 1000 ng/mL Spiked 5-FU): 0.1% | % Cross-React (monoclonal antibody 61C6; [2]): 0.0% | Cross-Reactivity (%) (mAb 61C6; With 5-FU (379 ng/mL)): −0.02% | Cross-Reactivity (%) (mAb 61C6; Without 5-FU): 0.000% | cross-reactivity (mAb 61C6): essentially undetectable

O=C1[O][Pt]2([NH][C@@H]3CCCC[C@H]3[NH]2)[O]C1=O [Oxaliplatin]
% Cross-React (monoclonal antibody 61C6; With 1000 ng/mL Spiked 5-FU): 0.0% | Cross-Reactivity (%) (mAb 61C6; With 5-FU (379 ng/mL)): 0.01% | Cross-Reactivity (%) (mAb 61C6; Without 5-FU): 0.000% | cross-reactivity (mAb 61C6): essentially undetectable

O=c1[nH]c(=O)n(C2CCCO2)cc1F (centres unmarked) [Tegafur]
cross-reactivity (antibody 61C6): less than 12% | % Cross-React (monoclonal antibody 61C6; With 75 ng/mL Spiked 5-FU): 56% | % Cross-React (monoclonal antibody 61C6; With 1000 ng/mL Spiked 5-FU): 45% | % Cross-React (monoclonal antibody 61C6; [2]): 42% | Cross-Reactivity (%) (mAb 61C6; With 5-FU (379 ng/mL)): 15.5% | Cross-Reactivity (%) (mAb 61C6; Without 5-FU): 16.2%

Cc1cn([C@H]2C[C@H](O)[C@@H](CO)O2)c(=O)[nH]c1=O [Thymidine]
% Cross-React (monoclonal antibody 61C6; With 75 ng/mL Spiked 5-FU): 1.0% | % Cross-React (monoclonal antibody 61C6; With 1000 ng/mL Spiked 5-FU): 1.3% | % Cross-React (monoclonal antibody 61C6; [2]): 0.2% | Cross-Reactivity (%) (mAb 61C6; With 5-FU (379 ng/mL)): 0.13% | Cross-Reactivity (%) (mAb 61C6; Without 5-FU): 0.05%

Cc1c[nH]c(=O)[nH]c1=O [Thymine]
% Cross-React (monoclonal antibody 61C6; With 75 ng/mL Spiked 5-FU): 2.5% | % Cross-React (monoclonal antibody 61C6; With 1000 ng/mL Spiked 5-FU): 2.2% | % Cross-React (monoclonal antibody 61C6; [2]): 1.0% | Cross-Reactivity (%) (mAb 61C6; With 5-FU (379 ng/mL)): 0.80% | Cross-Reactivity (%) (mAb 61C6; Without 5-FU): 0.59%

O=c1cc[nH]c(=O)[nH]1 [Uracil]
% Cross-React (monoclonal antibody 61C6; With 75 ng/mL Spiked 5-FU): 3.4% | % Cross-React (monoclonal antibody 61C6; With 1000 ng/mL Spiked 5-FU): 2.6% | % Cross-React (monoclonal antibody 61C6; [2]): 1.9% | Cross-Reactivity (%) (mAb 61C6; With 5-FU (379 ng/mL)): 0.11% | Cross-Reactivity (%) (mAb 61C6; Without 5-FU): 0.94%

O=c1ccn([C@@H]2O[C@H](CO)[C@@H](O)[C@H]2O)c(=O)[nH]1 [Uridine]
% Cross-React (monoclonal antibody 61C6; With 75 ng/mL Spiked 5-FU): 1.6% | % Cross-React (monoclonal antibody 61C6; With 1000 ng/mL Spiked 5-FU): 0.9% | % Cross-React (monoclonal antibody 61C6; [2]): 0.5% | Cross-Reactivity (%) (mAb 61C6; With 5-FU (379 ng/mL)): 0.16% | Cross-Reactivity (%) (mAb 61C6; Without 5-FU): 0.21%

Hemoglobin
% Cross-React (monoclonal antibody 61C6; With 75 ng/mL Spiked 5-FU): 0.0% | % Cross-React (monoclonal antibody 61C6; With 1000 ng/mL Spiked 5-FU): −0.1% | % Cross-React (monoclonal antibody 61C6; [2]): 0.0%
